For eight substances, Kd results are on record in patent US20150285818A1, “Switchable Reporter Enzymes for Homogenous Antibody Detection” (TECHNISCHE UNIVERSITEIT EINDHOVEN, priority 2012, published 2015).

Several values for one entry are separate records, joined by “and”; a condition that tells them apart may be missing. Equal entries are not always repeated. Where two headings read alike, the source gives them in different places. Fluorescein = fluorescein label attached to a cysteine side chain

Assay [1] has as its target anti-Dengue-1 antibody. The assay is described as follows: Peptide binding assay using fluorescence polarization, anti-Dengue-1. The following applies: read-out: Kd, fluorescence polarization titration (Eq. 8); 10 nM fluorescein-labeled peptide titrated with antibody. For orientation: In fluorescence polarisation assays a small probe gives low polarisation when free and higher when bound to something large.

Assay [2] concerns the target anti-HIV1-p17 antibody. Kind of assay: Peptide binding assay using fluorescence polarization, anti-HIV1-p17.
For assay [3], the target named is anti-HA antibody. Kind of assay: Peptide binding assay using fluorescence polarization, anti-HA.
The mark [4] stands for this setting: read-out: Kd, fluorescence polarization titration (Eq. 8), 10 nM fluorescein-labeled short epitope peptide titrated with antibody.

Regarding EHKYSWKS-GGG-C(Fluorescein), the Kd in assay [1] was determined as 70 ± 13 nM.
Take WEKIRLR: the Kd in assay [2] (setting [4]) is ~3000 nM and 3300 nM.
For the substance ELDRWEKIRLRP-GGG-C(Fluorescein), in assay [2] (read-out: Kd, fluorescence polarization titration (Eq. 8), 10 nM fluorescein-labeled peptide titrated with antibody), the Kd worked out at 24 ± 3 nM.
Take YPYDVPDYA: in assay [3] (read-out: Kd (Kd1) of non-labeled peptide, competition assay (Eqs. 9 and 10), antibody and fluorescein-labeled peptide 10 nM each, titrated with non-labeled peptide), the Kd was 4.5 nM and ~5 nM.
For the substance “WEKIRLR-GGG-C(Fluorescein) (Ac-WEKIRLRGGGC(Fluorescein)-NH2)”, the Kd in assay [2] (setting [4]) was determined as 3300 ± 200 nM.
Regarding EHKYSWKS, the Kd in assay [1] stood at 70 nM.
As for YPYDVPDYA-GGG-C(Fluorescein), the Kd in assay [3] (read-out: Kd, fluorescence polarization titration (Eq. 8), 2 nM fluorescein-labeled peptide titrated with antibody) is 0.58 ± 0.22 nM.
For the substance ELDRWEKIRLRP, the Kd in assay [2] (read-out: Kd (Kd1) of non-labeled peptide, competition assay (Eqs. 9 and 10), antibody and fluorescein-labeled peptide 100 nM each, titrated with non-labeled peptide) was found to be 42 ± 1 nM.
